Some test systems named below: 786-0 renal; A549 NSCLC; BT-549 breast; LOX IMVI melanoma; MALME-3M melanoma; MOLT-4 leukemia; NCI/ADR-RES ovarian; SW-620 colon.
Common to all, as to test: growth of human tumour cells (NCI), 48 h

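A five-concentration, 48-hour dose response in 96-well plates underlies each endpoint, interpolated linearly between surrounding concentrations. GI50 marks 50% less growth. TGI denotes the concentration required for complete inhibition of growth.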

With `COc1ccc(Cn2c(Br)c3c(c2-c2cc(OC)c(OC)c(OC)c2)CCc2sc(NC(C)=O)nc2-3)cc1`, the GI50 in the assay with 786-0 renal is 4.2 µM; with A549 NSCLC it was 3.92 µM; in the assay with BT-549 breast it was 3.18 µM; in the assay with LOX IMVI melanoma, 4.45 µM; in the assay on MALME-3M melanoma, 12.7 µM; with MOLT-4 leukemia it was 4.37 µM. Also, the values for the GI50 in the assay with NCI/ADR-RES ovarian and in the assay with SW-620 colon were 4.97 µM and 3.63 µM, respectively. Further, the TGI in the assay on 786-0 renal is above 100 µM; in the assay with A549 NSCLC, above 100 µM; with BT-549 breast, 19.4 µM; with LOX IMVI melanoma it was 42.8 µM; with MALME-3M melanoma, 83.4 µM; in the assay on MOLT-4 leukemia, above 100 µM. For the same molecule, the TGI in the assay on NCI/ADR-RES ovarian and with SW-620 colon was above 100 µM each time.

As to `CC([O-])C(=O)[O-].NCC1CCC1CN.[Pt+4]` (stereo unspecified), the GI50 in the assay on 786-0 renal was above 10 µM; in the assay on A549 NSCLC it was above 10 µM; in the assay with BT-549 breast it was above 10 µM; in the assay on LOX IMVI melanoma it was above 10 µM; with MALME-3M melanoma, above 10 µM; in the assay on MOLT-4 leukemia it was 8.71 µM. Besides, the GI50 in the assay on NCI/ADR-RES ovarian and in the assay with SW-620 colon was above 10 µM throughout. For the same molecule, the TGI with 786-0 renal, in the assay with A549 NSCLC, with BT-549 breast, with LOX IMVI melanoma, with MALME-3M melanoma and in the assay with MOLT-4 leukemia was above 10 µM throughout. Besides, the TGI in the assay with NCI/ADR-RES ovarian and in the assay on SW-620 colon was above 10 µM throughout.

For `COc1cc2c3c(c4c5ccccc5[nH]c4c2c(OC)c1OC)C(=O)N(CCN1CCCCC1)C3=O`, the GI50 with 786-0 renal was 1.27 µM; in the assay on A549 NSCLC, 0.611 µM; with BT-549 breast it was 4.6 µM; with LOX IMVI melanoma, 1.05 µM; with MALME-3M melanoma, 1.36 µM; in the assay with MOLT-4 leukemia, 0.536 µM. The results for the GI50 in the assay with NCI/ADR-RES ovarian and in the assay on SW-620 colon were 0.892 µM and 0.474 µM, respectively. For the same molecule, the TGI with 786-0 renal was 2.87 µM; in the assay on A549 NSCLC, 2.3 µM; with BT-549 breast, 13.4 µM; with LOX IMVI melanoma it was 2.45 µM; in the assay with MALME-3M melanoma, 2.85 µM; in the assay with MOLT-4 leukemia, 9.23 µM. Further, the TGI is 3.19 µM in the assay on NCI/ADR-RES ovarian and 2.56 µM with SW-620 colon.

In the case of `CNC1C(OC2C(OC3C(O)C(O)C(O)C(O)C3O)OC(C)C2(O)CO)OC(CO)C(O)C1O` (stereo unspecified) (tested in a mixture with another compound), the TGI in the assay on 786-0 renal, in the assay on A549 NSCLC, with BT-549 breast, with LOX IMVI melanoma, in the assay on MALME-3M melanoma and in the assay on MOLT-4 leukemia was above 100 µM in each case. For the same molecule, the TGI in the assay with NCI/ADR-RES ovarian and with SW-620 colon was above 100 µM each time.

For the molecule `Cc1ccccc1/C=C1\CN(C(=O)OC(C)(C)C)C/C(=C\c2ccccc2C)C1=O`, the GI50 in the assay on 786-0 renal is 1.84 µM; in the assay on A549 NSCLC, 2.82 µM; with BT-549 breast, 2.3 µM; with LOX IMVI melanoma, 1.88 µM; with MALME-3M melanoma it was 1.81 µM; in the assay on MOLT-4 leukemia it was 2.9 µM. The GI50 is 3.49 µM in the assay on NCI/ADR-RES ovarian and 2.99 µM in the assay with SW-620 colon. In addition, the TGI with 786-0 renal stood at 3.52 µM; in the assay with A549 NSCLC, 9.17 µM; with BT-549 breast it was 6.61 µM; with LOX IMVI melanoma, 3.6 µM; in the assay with MALME-3M melanoma it was 3.6 µM; in the assay on MOLT-4 leukemia it was 21.8 µM. For the same molecule, the results for the TGI in the assay with NCI/ADR-RES ovarian and in the assay with SW-620 colon were 65.1 µM and 7.07 µM, respectively.

Consider `CCCCCCCCCC(CCCC(O)CC(=O)O)OC1OC(COC2OC(C)C(O)C(O)C2O)C(O)C(O)C1OC1OC(CO)C(O)C(O)C1OC1OC(C)C(O)C(O)C1O` (stereo unspecified), for which the GI50 with 786-0 renal, in the assay with A549 NSCLC, in the assay with BT-549 breast, in the assay on LOX IMVI melanoma, in the assay with MALME-3M melanoma and with MOLT-4 leukemia was above 40 µM throughout. Moreover, the GI50 in the assay on NCI/ADR-RES ovarian and in the assay with SW-620 colon was above 40 µM throughout. Further, the TGI in the assay with 786-0 renal, in the assay on A549 NSCLC, in the assay with BT-549 breast, in the assay with LOX IMVI melanoma, in the assay on MALME-3M melanoma and with MOLT-4 leukemia was above 40 µM throughout. The TGI with NCI/ADR-RES ovarian and in the assay with SW-620 colon was above 40 µM throughout.

Consider `Nc1nc2c(c3cnccc13)C(c1cccc(Cl)c1)Cc1cnccc1-2` (stereo unspecified), for which the GI50 in the assay with 786-0 renal is 0.396 µM; with A549 NSCLC it was 0.552 µM; in the assay with BT-549 breast, 0.482 µM; in the assay with LOX IMVI melanoma it was 0.373 µM; in the assay with MALME-3M melanoma, 0.419 µM; with MOLT-4 leukemia it was 0.494 µM. Further, the results for the GI50 with NCI/ADR-RES ovarian and in the assay on SW-620 colon were 0.237 µM and 0.455 µM, respectively. Further, the TGI in the assay with 786-0 renal turned out to be 10.6 µM; in the assay with A549 NSCLC it was 10.6 µM; in the assay on BT-549 breast it was 4.21 µM; in the assay with LOX IMVI melanoma, 11.2 µM; in the assay with MALME-3M melanoma it was 17.8 µM; with MOLT-4 leukemia it was 17.3 µM. Also, the TGI stood at 0.663 µM in the assay on NCI/ADR-RES ovarian and 17.6 µM with SW-620 colon.

For `N=c1ccn2c(n1)O[C@@H]1[C@@H](O)[C@H](CO)O[C@@H]12`, the GI50 was 2.46 µM in the assay on 786-0 renal; 0.41 µM in the assay with A549 NSCLC; 41.3 µM in the assay on BT-549 breast; 6.97 µM in the assay on LOX IMVI melanoma; 2.57 µM with MALME-3M melanoma; 0.161 µM in the assay on MOLT-4 leukemia. The GI50 in the assay on NCI/ADR-RES ovarian is 2.08 µM; with SW-620 colon, 4.59 µM. In addition, the TGI with 786-0 renal is 50.3 µM; in the assay on A549 NSCLC, above 100 µM; in the assay with BT-549 breast, above 100 µM; in the assay on LOX IMVI melanoma, above 100 µM; in the assay with MALME-3M melanoma, above 100 µM; in the assay on MOLT-4 leukemia, above 100 µM. Further, the TGI in the assay on NCI/ADR-RES ovarian and in the assay with SW-620 colon was above 100 µM throughout.

Consider `Cc1ccc(NC(=O)c2nc(S(C)=O)oc2-c2ccc(F)cc2)cc1Nc1nccc(-c2cccnc2)n1` (stereo unspecified), for which the GI50 in the assay on 786-0 renal is 2 µM; in the assay on A549 NSCLC, 5.15 µM; in the assay with BT-549 breast, 1.74 µM; in the assay with LOX IMVI melanoma, 1.22 µM; in the assay with MALME-3M melanoma it was 1.34 µM; in the assay on MOLT-4 leukemia it was 2.17 µM. For the same molecule, the values for the GI50 in the assay on NCI/ADR-RES ovarian and in the assay on SW-620 colon were 3.07 µM and 2.1 µM, respectively. Also, the TGI in the assay on 786-0 renal was 3.55 µM; in the assay with A549 NSCLC it was 17.3 µM; with BT-549 breast, 4.17 µM; with LOX IMVI melanoma it was 2.65 µM; with MALME-3M melanoma, 2.89 µM; in the assay with MOLT-4 leukemia it was 6.82 µM. Also, the TGI with NCI/ADR-RES ovarian turned out to be 11.9 µM; with SW-620 colon it was 4.01 µM.

(Values after PubChem BioAssay (NCI).)
